{"source": "patent US20160051527A1", "about": "“METHODS AND KITS FOR TREATING AND CLASSIFYING INDIVIDUALS AT RISK OF OR SUFFERING FROM A NEUROLOGICAL DYSFUNCTION OR DISORDER” (priority 2013, published 2016)", "system": "patients with a single variant in the ChAT gene (340L>F or 510R>Q)", "experiment": "Clinical response to medications prior to sequencing in patients carrying a ChAT gene variant", "conditions": "2/2 patients, dampens opposing sympathetic activity"}
{"smiles": "CC(C)NCC(O)COc1cccc2ccccc12", "note": "(stereo not shown) [propranolol]", "values": [{"measurement": "clinical response", "value": "clinical improvement"}]}
